Measured values as given in US20240174690A1, “ANNULATED 2-AMINO-3-CYANO THIOPHENES AND DERIVATIVES FOR THE TREATMENT OF CANCER” (BOEHRINGER INGELHEIM INTERNATIONAL GMBH, priority 2021, published 2024).
Read-outs that look alike come from different tables or passages of the source.

How the values were obtained:
KRAS (WT)::SOS1 = KRAS (WT)::SOS1 (Homo sapiens (Human), UniProt P01116, C118S); assay: KRAS::SOS1 AlphaScreen binding assay, KRAS WT
Summary of the method: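 KRAS 1-169 (biotinylated avi-tag) with GST-SOS1 564-1049 and 10 µM GDP in PBS/0.1% BSA/0.05% Tween 20: WT and G13D 10 nM each with 10 nM SOS1; G12D 10 nM and G12C 7.5 nM with 5 nM SOS1. After 30 min, glutathione acceptor/streptavidin donor beads were added for 60 min at RT in the dark, then AlphaScreen read; 4-parameter IC50.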

MKN1 cells = assay: MKN1 CTG proliferation assay (120 h) (gastric cancer, wt amplified); type: cell-based; conditions: Homo sapiens
Summary of the method: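 MKN1 gastric cancer cells (200–500 per well, RPMI + 10% FCS) given a logarithmic compound dose series and incubated 120 h. Viability by CellTiter-Glo luminescence as percent of DMSO controls. IC50 by four-parameter non-linear regression.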

CYP3A4 = CYP3A4 (Homo sapiens (Human), UniProt P08684); assay: Mechanism based inhibition of CYP3A4 assay (MBI 3A4); type: in vitro ADME; conditions: hydroxy-midazolam formation after 30 min vs 0 min preincubation, 25 uM, human liver microsomes
Summary of the method: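 Human CYP3A4 activity after 30 min vs 0 min preincubation with test compound; incubate then diluted 1:10 and midazolam added for a 15 min main incubation. Quenched with acetonitrile; hydroxy-midazolam quantified by LC/MS-MS and expressed as % of the 0 min preincubation formation.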

[1] = MKN-1, assay 3, CTG 120 h, read-out: MKN1 (assay 3) IC50
[2] = MKN-1, assay 2, CTG 120 h, read-out: MKN1 (assay 2) IC50
[3] = MKN-1, assay 1, CTG 120 h, read-out: MKN1 (assay 1) IC50

Sequence of CYP3A4 (P08684 whole entry): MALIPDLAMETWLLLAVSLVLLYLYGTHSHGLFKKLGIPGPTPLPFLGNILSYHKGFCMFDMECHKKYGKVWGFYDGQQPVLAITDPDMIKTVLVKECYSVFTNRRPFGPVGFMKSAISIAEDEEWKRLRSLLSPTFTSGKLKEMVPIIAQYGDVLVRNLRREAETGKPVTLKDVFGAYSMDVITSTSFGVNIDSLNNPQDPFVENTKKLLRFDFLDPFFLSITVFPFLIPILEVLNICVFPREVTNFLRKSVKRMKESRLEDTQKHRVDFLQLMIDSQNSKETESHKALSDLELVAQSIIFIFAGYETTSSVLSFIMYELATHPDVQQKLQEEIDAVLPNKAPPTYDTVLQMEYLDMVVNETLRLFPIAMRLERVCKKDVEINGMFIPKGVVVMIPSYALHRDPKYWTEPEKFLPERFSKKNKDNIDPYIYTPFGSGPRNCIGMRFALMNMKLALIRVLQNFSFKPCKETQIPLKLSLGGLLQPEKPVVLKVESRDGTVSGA
Sequence of KRAS (WT)::SOS1 (P01116 other isoform, or with tags, fused parts or gaps C118S): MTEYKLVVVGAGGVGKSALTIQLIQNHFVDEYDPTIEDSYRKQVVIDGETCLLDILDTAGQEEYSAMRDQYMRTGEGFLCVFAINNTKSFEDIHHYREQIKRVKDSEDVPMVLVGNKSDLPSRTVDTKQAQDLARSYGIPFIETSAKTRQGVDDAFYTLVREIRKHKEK

Compound	IC50 (KRAS (WT)::SOS1)	IC50 (MKN1 cells; [1])	MBI 3A4 (CYP3A4)	IC50 (MKN1 cells; [2])	IC50 (MKN1 cells; [3])
C[C@H](Oc1cc(N2CCNC3(COC3)C2)nc(-c2onc3c2CCC[C@@]32CCCc3sc(N)c(C#N)c32)n1)[C@@H]1CCCN1C [I-4]	0.003 µM	0.075 µM	64%		
Cc1ccc(-c2cc(O[C@@H](C)[C@@H]3CCCN3C)nc(-c3onc4c3CCC[C@@]43CCCc4sc(N)c(C#N)c43)n2)cn1 [I-28]	0.018 µM	1.28 µM	77%		
C[C@H](Oc1cc(N2CC[C@H](N3CCCCC3)C2)nc(-c2noc3c2CCC[C@@]32CCCc3sc(N)c(C#N)c32)n1)[C@@H]1CCCN1C [II-12]	0.015 µM	0.46 µM	78%		
C[C@H](Oc1cc(N2CCNC3(CC3)C2)nc(-c2onc3c2CCC[C@@]32CCCc3sc(N)c(C#N)c32)n1)[C@@H]1C[C@@H](F)CN1C [I-45]	0.006 µM			0.51 µM	
C[C@H](Oc1cc(-n2ccc(C(N)=O)n2)nc(-c2noc3c2CCC[C@@]32CCCc3sc(N)c(C#N)c32)n1)[C@@H]1CCCN1C [II-21]	0.003 µM	0.024 µM	77%	0.027 µM	0.02 µM
C[C@H](Oc1cc(N2C[C@H](C)NC3(CC3)C2)nc(-c2noc3c2CCC[C@@]32CCCc3sc(N)c(C#N)c32)n1)[C@@H]1C[C@@H](F)CN1C [II-18]	0.006 µM			0.279 µM	
C[C@H](Oc1cc(-c2ccn(C3COC3)n2)nc(-c2onc3c2CCC[C@@]32CCCc3sc(N)c(C#N)c32)n1)[C@@H]1CCCN1C [I-34]	0.004 µM	0.693 µM	67%		
C[C@H](Oc1cc(N2CCN(C)C3(CC3)C2)nc(-c2onc3c2CCC[C@@]32CCCc3sc(N)c(C#N)c32)n1)[C@@H]1C[C@@H](F)CN1C [I-39]	0.011 µM		37%	0.621 µM	
C[C@H](Oc1cc(N2CC3CCC(C2)N3)nc(-c2noc3c2CCC[C@@]32CCCc3sc(N)c(C#N)c32)n1)[C@@H]1CCCN1C [II-34]	0.008 µM	0.453 µM	83%		
[2H]C([2H])([2H])N1C[C@H](F)C[C@H]1[C@H](C)Oc1cc(N2CCNC3(CC3)C2)nc(-c2noc3c2CCC[C@@]32CCCc3sc(N)c(C#N)c32)n1 [II-208]	0.004 µM	0.245 µM		0.451 µM	
C[C@H](Oc1cc(N2CC[C@H](N(C)C)C2)nc(-c2noc3c2CCC[C@@]32CCCc3sc(N)c(C#N)c32)n1)[C@@H]1C[C@@H](F)CN1C [II-15]	0.011 µM		76%		
C[C@H](Oc1cc([C@@H]2CCOC2)nc(-c2onc3c2CCC[C@@]32CCCc3sc(N)c(C#N)c32)n1)[C@@H]1CCCN1C [I-22]	0.003 µM	0.068 µM			
CNC(=O)c1ccn(-c2cc(O[C@@H](C)[C@@H]3CCCN3C)nc(-c3noc4c3CCC[C@@]43CCCc4sc(N)c(C#N)c43)n2)n1 [II-20]	0.004 µM		63%		0.024 µM
